What is called TGI is the concentration giving total growth inhibition. Read a high TGI as lower sensitivity of the cells. As a reminder, the GI50 is the concentration giving 50% growth inhibition.

Some test systems named below: COLO 205 colon; K-562 leukemia; KM12 colon; NCI-H522 lung; OVCAR-8 ovarian; SF-539 CNS; SN12C renal; SW-620 colon; UO-31 renal; LOX IMVI melanoma.
Test in all cases: DTP human tumour cell line panel, 48 h

Where “and” joins values, the source holds several entries; their conditions need not be identical. Equal values may be shown once.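 Cells were grown in 96-well plates and exposed to each compound for 48 hours at five concentrations; endpoints were interpolated linearly between bracketing concentrations, or set to the highest concentration if not reached. GI50: concentration for 50% inhibition of growth. The concentration for full growth arrest is given as TGI.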

As to `CC(C)C1=CC23CCC4C(C)(C(=O)O)CCCC4(C)C2CC1C1C(=O)N(c2ccc(Cc4ccc(N5C(=O)C6C7CC8C9(C)CCCC(C)(C(=O)O)C9CCC8(C=C7C(C)C)C6C5=O)cc4)cc2)C(=O)C13` (stereo unspecified), the TGI in the assay with COLO 205 colon was 26.4 µM; with K-562 leukemia, > 100 µM; in the assay with KM12 colon, 20.2 µM; in the assay with NCI-H522 lung it was 24.1 µM; in the assay with OVCAR-8 ovarian, 22.5 µM; in the assay with SF-539 CNS, 20.1 µM. Further, the TGI was 25.3 µM with SN12C renal, 31.2 µM in the assay with SW-620 colon and 31.3 µM with UO-31 renal.

As for `COc1ccc2occ(CCC(=O)O)c2c1`, the total growth inhibition concentration (TGI) with COLO 205 colon, in the assay with K-562 leukemia, in the assay with LOX IMVI melanoma, with OVCAR-8 ovarian, with SF-539 CNS and in the assay with SN12C renal was > 100 µM in each case. Moreover, the TGI in the assay on SW-620 colon is > 100 µM.

As to `CCOC(=O)c1cnc2c(ccc3[nH]n(C)nc32)c1=O`, the TGI in the assay on COLO 205 colon, in the assay with K-562 leukemia, with KM12 colon, in the assay with NCI-H522 lung, in the assay with OVCAR-8 ovarian and with SN12C renal was > 100 µM throughout. Also, the values for the TGI in the assay on SW-620 colon and in the assay on UO-31 renal were 36.8 µM and > 100 µM, respectively.

On to `CC1(C)COC(C2(C)C(=O)C=C(c3ccccc3)c3ccccc32)=N1` (stereo unspecified), for which the TGI in the assay with COLO 205 colon, in the assay with K-562 leukemia, in the assay with KM12 colon, in the assay with NCI-H522 lung, with OVCAR-8 ovarian and with SF-539 CNS was > 100 µM throughout. The concentration for total growth inhibition (TGI) is > 100 µM in the assay on SN12C renal, > 100 µM in the assay with SW-620 colon and 98.6 µM in the assay on UO-31 renal.

Turning to `O=C1CCC(Cl)=CC2CCCN12` (stereo unspecified), the total growth inhibition concentration (TGI) in the assay on COLO 205 colon, in the assay on K-562 leukemia, in the assay with LOX IMVI melanoma, in the assay on OVCAR-8 ovarian, with SF-539 CNS and in the assay with SN12C renal was > 100 µM each time. Also, the TGI in the assay on SW-620 colon and in the assay with UO-31 renal was > 100 µM each time.

Regarding `CC(=O)N=C1N(/C=C2\C(=O)Oc3ccccc3C2=O)C(=O)/C(=C/c2cccc(Cl)c2Cl)N1C`, the TGI with COLO 205 colon was 74 µM; in the assay on K-562 leukemia, 63.3 µM; in the assay on KM12 colon, > 100 µM; in the assay with LOX IMVI melanoma, > 100 µM; in the assay on NCI-H522 lung it was > 100 µM; in the assay with OVCAR-8 ovarian, 44.3 µM. For the same compound, the values for the total growth inhibition concentration (TGI) in the assay on SF-539 CNS, in the assay on SN12C renal and in the assay on SW-620 colon were 27.7 µM, > 100 µM and > 100 µM, respectively.

Take `O=[N+]([O-])c1ccc2[nH]c(=S)[nH]c(=S)c2c1`: the TGI in the assay on COLO 205 colon, in the assay with K-562 leukemia, in the assay with KM12 colon, in the assay with LOX IMVI melanoma, in the assay on NCI-H522 lung and with OVCAR-8 ovarian was > 100 µM in each case. Moreover, the concentration for total growth inhibition (TGI) in the assay with SF-539 CNS, with SN12C renal and in the assay on UO-31 renal was > 100 µM in each case.

Take `OC(CC1SCCCS1)c1ccccc1` (stereo unspecified): the TGI in the assay on COLO 205 colon, with K-562 leukemia, with KM12 colon, in the assay on NCI-H522 lung, in the assay with OVCAR-8 ovarian and in the assay on SF-539 CNS was > 100 µM each time. The TGI in the assay with SN12C renal, in the assay with SW-620 colon and with UO-31 renal was > 100 µM throughout.

On to `CC1(C)C(C#N)C1C1=C(N2CCOCC2)[C@]2(C)C(OC(=O)c3ccccc3)CC[C@@H]2C1` (stereo partly specified), for which the TGI in the assay with COLO 205 colon, in the assay with K-562 leukemia, with KM12 colon, in the assay with NCI-H522 lung, in the assay with OVCAR-8 ovarian and in the assay on SF-539 CNS was > 100 µM each time. Further, the total growth inhibition concentration (TGI) in the assay on SN12C renal, in the assay with SW-620 colon and with UO-31 renal was > 100 µM each time.

With `Clc1ccc2c(c1)[nH]c1c2nc2ccccn21`, the GI50 was 23.9 µM and 3.96 µM in the assay with K-562 leukemia; 44.5 µM and 17 µM in the assay on OVCAR-8 ovarian; 36.1 µM and 15.4 µM with SN12C renal. Also, the TGI in the assay on K-562 leukemia is 74.8 µM and 37.3 µM; in the assay with KM12 colon, 35.7 µM and 32 µM; in the assay on NCI-H522 lung, 45.6 µM and 39.6 µM; in the assay with OVCAR-8 ovarian it was > 100 µM and 33.1 µM; in the assay on SF-539 CNS it was 50.3 µM and 30.6 µM; in the assay on SN12C renal, > 100 µM and 32.2 µM. For the same compound, the TGI in the assay with SW-620 colon is 38.3 µM and 45.3 µM; in the assay on UO-31 renal, 53.7 µM and 37.5 µM.

On to `O=[N+]([O-])c1cccc(C2=NN(c3ccccc3)C[N+](c3ccc(Br)cc3)=N2)c1`, for which the TGI with COLO 205 colon, in the assay on K-562 leukemia, with KM12 colon, with NCI-H522 lung, in the assay on OVCAR-8 ovarian and in the assay with SF-539 CNS was > 100 µM in each case. Further, the concentration for total growth inhibition (TGI) in the assay with SN12C renal, with SW-620 colon and in the assay with UO-31 renal was > 100 µM in each case.

`COc1ccc(C2SC(N)=Nc3c2c(C)nn3C(=O)c2ccncc2)cc1OC` (stereo unspecified): the TGI with COLO 205 colon, in the assay on K-562 leukemia, in the assay on KM12 colon, in the assay with LOX IMVI melanoma, with NCI-H522 lung and in the assay with OVCAR-8 ovarian was > 10 µM throughout. Also, the TGI with SF-539 CNS, in the assay with SN12C renal and in the assay with SW-620 colon was > 10 µM in each case.

`CO/N=C(/C)c1cccc(Nc2cc(-n3nnc4ccccc43)nc3ccccc23)c1`: the GI50 in the assay on COLO 205 colon is > 100 µM; in the assay with K-562 leukemia, 15.2 µM; in the assay on NCI-H522 lung it was > 100 µM; in the assay on OVCAR-8 ovarian it was 87.1 µM; with SF-539 CNS, 45.5 µM; in the assay on SN12C renal, 32.8 µM. In addition, the GI50 is 34.1 µM with SW-620 colon and > 100 µM with UO-31 renal. For the same compound, the TGI in the assay on COLO 205 colon was > 100 µM; in the assay on K-562 leukemia it was > 100 µM; in the assay with KM12 colon, 5.78 µM; with NCI-H522 lung, > 100 µM; in the assay on OVCAR-8 ovarian, > 100 µM; in the assay with SF-539 CNS it was > 100 µM. Moreover, the TGI in the assay with SN12C renal, with SW-620 colon and with UO-31 renal was > 100 µM throughout.

For the compound `CN1CC(=O)N2Cc3ccccc3-n3cccc3C2C1` (stereo unspecified), the concentration for total growth inhibition (TGI) with COLO 205 colon, with KM12 colon, in the assay on LOX IMVI melanoma, in the assay with OVCAR-8 ovarian, in the assay on SF-539 CNS and in the assay with SN12C renal was > 100 µM each time. Also, the TGI in the assay with SW-620 colon and with UO-31 renal was > 100 µM throughout.

These data come from PubChem BioAssay (NCI).
